# Structures can show the parent of a compound that is named as a salt. Where two headings read alike, the source gives them in different places.
# Tests used:
# SUDHL5 [1] = experiment: Induction of caspase-3/7 activity (Caspase-Glo 3/7), SUDHL5; format: cell-based; settings: caspase-3/7 induction, SUDHL5 cells, 3 h treatment, median
# Experimental: (§1) Induction of Caspase-317 Activity Upon Treatment of Cells with Selected Compounds
# (§2) The BH3-domain of MCL-1 sequesters pro-apoptotic proteins, thereby inhibiting apoptosis. In contrast, MCL-1 inhibitors are expected to antagonize this effect leading to an increase in apoptosis, which can be determined by measuring the activity of caspase-3/7.
# (§3) The activity of caspase-3/7 was determined in DLBCL (Diffuse large B-cell lymphoma) cell lines (SUDHL5 and SUDHL10) upon treatment with different compounds, using the Caspase-Glo® 3/7 reagent from Promega (G8092).
# (§4) Rim wells were excluded. The cells were incubated for 3 h hours in a humidified incubator at 37° C.
# (§5) For the evaluation of the results, the background measured with “medium-only” was subtracted from all other values. […] The Bella DRC Master Sheet was used to calculate EC50s, with fixed C0=1 and CI=plateaulmax induction for the reference compound.
# SUDHL5 [2] = experiment: Induction of cytotoxicity (CellTiter-Glo, 5 h), SUDHL5
# SUDHL10 [3] = experiment: Induction of caspase-3/7 activity (Caspase-Glo 3/7), SUDHL10; format: cell-based; settings: caspase-3/7 induction, SUDHL10 cells, 3 h treatment, median
# Experimental: as §1, §2, §3, §4, §5
# A2780 = experiment: Anti-proliferative effect (CellTiter-Glo, 72 h), A2780; format: cell-based; settings: A2780 cells, median, read-out: IC50 antiproliferation assay A2780 [M] (median)
# Experimental: (§6) Assessment of the Anti-Proliferative Effect of Compounds in Different Cell Lines
# (§7) The impact of compounds on the proliferation of different cell lines was assessed using the CellTiter-Glo® Luminescent Cell Viability reagent from Promega (G7573). Of note, SUDHL10 and SUDHL5 (DLBCL), NCI-H929 (Multiple Myeloma), A2780 (ovarian carcinoma) as well as MV-4-11(AML) cells are sensitive to MCL-1 inhibition.
# (§8) In parallel, cells were plated in a reference (day 0) plate for time zero determination.
# (§9) Rim wells were excluded. The cells were incubated for 72 h hours in a humidified incubator at 37° C. The day 0 plate was measured by adding 30 μl/well of CTG solution (CellTiter-Glo® Luminescent Cell Viability reagent, Promega G7573) to time zero wells in the reference plate followed by a 10 minutes incubation and luminescence reading at 0.1 ms, using the PHERAstar FS microplate reader (BMG Labtech).
# (§10) After 72 h incubation, the treated plates were measured in the same way as the day 0 plate mentioned above.
# SUDHL5 [4] = experiment: Anti-proliferative effect (CellTiter-Glo, 72 h), SUDHL5; format: cell-based; settings: SUDHL5 cells, antiproliferation, 72 h incubation, median, read-out: Antiproli SUDHL5 [M] (median)
# Experimental: as §6, §7, §8, §9, §10
# MCL-1 = MCL-1 (Homo sapiens, UniProt Q07820); experiment: Protein-protein interaction assay MCL-1/Noxa BH3 peptide (MCL-1 assay), TR-FRET; format: binding; settings: MBP-MCL-1 / Noxa BH3-derived peptide, median
# Sequence of MCL-1 (Q07820 whole entry): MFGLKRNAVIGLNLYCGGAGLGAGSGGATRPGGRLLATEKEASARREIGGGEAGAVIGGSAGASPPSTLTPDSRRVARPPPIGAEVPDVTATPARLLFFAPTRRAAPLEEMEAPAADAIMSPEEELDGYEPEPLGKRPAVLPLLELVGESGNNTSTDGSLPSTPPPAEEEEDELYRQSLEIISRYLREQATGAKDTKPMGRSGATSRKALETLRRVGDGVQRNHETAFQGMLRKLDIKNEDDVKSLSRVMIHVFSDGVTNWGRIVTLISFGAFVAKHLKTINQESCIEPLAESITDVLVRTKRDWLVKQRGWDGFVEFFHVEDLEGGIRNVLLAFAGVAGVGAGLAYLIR
# Experimental: Protein-Protein Interaction Assay: MCL-1/Noxa BH3 Peptide (MCL-1 Assay) […]
# In the assay 11 different concentrations of each compound (0.1 nM, 0.33 nM, 1.1 nM, 3.8 nM, 13 nM, 44 nM, 0.15 μM, 0.51 μM, 1.7 μM, 5.9 μM and 20 μM) were typically measured as duplicates in the same microtiter plate. For that, 100-fold concentrated DMSO solutions were prepared by serial dilutions (1:3.4) of a 2 mM stock solution in a clear, 384-well microtiter plate (Greiner Bio-One, Frickenhausen, Germany). From there, 50 ni were transferred in a dark test plate (Greiner Bio-One, Frickenhausen, Germany). The assay was initiated by addition of 2 μl of a 2.5-fold concentrated MBP-MCL-1 solution (usually for a 1 nM end concentration in 5 μl reaction volume) in aqueous assay buffer [50 mM Tris/HCl pH 7, 100 mM sodium chloride (NaCl), 50 mM potassium fluoride (KF), 0.005% Tween-20, 2 mM DTT, 0.1% bovine gamma globulin (BGG)] to the compounds in the assay plate. This was followed by a 10-minute incubation step at 22° C. for pre-equilibration of the putative complex between MBP-MCL-1 and the compounds. After that.
# The mixture was incubated in the dark for one hour at 22° C. and then overnight at 4° C. The formation of MCL-1/Noxa complexes was determined by measuring the resonance energy transfer of the anti-MBP- Eu-cryptate antibody to the streptavidin-XL665 present in the reaction. For that purpose, the fluorescence emission at 620 nm and 665 nm after excitation at 330-350 nm was measured in a TR-FRET measuring instrument, for instance a Rubystar or a Pherastar (both from BMG Lab Technologies, Offenburg, Germany) or a Viewlux (Perkin-Elmer). The ratio of the emission at 665 nm and at 622 nm was used as indicator of the amount of MCL-1/NOXA complexes present.
# The resulting data (ratio) were normalized, taking 0% inhibition as the mean value of control measurements (usually 32 data points) where all reagents were included. In this case 50 nl DMSO were used instead of compounds. A 100% inhibition corresponded to the mean value of control measurements (usually 32 data points) where all reagents except MCL-1 were included. IC50 values were determined by regression analysis based on a 4 parameter equation (minimum, maximum, IC50, Hill; Y=Max+(Min−Max)/(1+(X/IC50)^Hill) using the Screener Software (Genedata).
# SUDHL10 [5] = experiment: Induction of cytotoxicity (CellTiter-Glo, 5 h), SUDHL10
# [6] = read-out: Cytotox SUDHL5 [M] (median), SUDHL5 cells, cytotoxicity induction, CellTiter-Glo, 5 h incubation, median
# [7] = Homo sapiens, SU-DHL10, 5 h, read-out: Cytotox SUDHL10 [M] (median), SUDHL10 cells, cytotoxicity induction, CellTiter-Glo, 5 h incubation, median
# [8] = Homo sapiens, SU-DHL-5, 5 h, read-out: Cytotox SUDHL5 [M] (median), SUDHL5 cells, cytotoxicity induction, CellTiter-Glo, 5 h incubation, median
# [9] = read-out: Cytotox SUDHL10 [M] (median), SUDHL10 cells, cytotoxicity induction, CellTiter-Glo, 5 h incubation, median
Compound,EC50 (SUDHL5 [1]) [µM],EC50 (SUDHL10 [3]) [µM],"IC50 (A2780; Homo sapiens, A2780, 72 h) [M]","IC50 (SUDHL5 [4]; Homo sapiens, SU-DHL-5, 72 h) [M]",IC50 (MCL-1) [µM],"EC50 (SUDHL5 [1]; Homo sapiens, SU-DHL-5, 3 h) [µM]","EC50 (SUDHL10 [3]; Homo sapiens, SU-DHL10, 3 h) [µM]",IC50 (SUDHL5 [4]) [M],IC50 (A2780) [M],IC50 (SUDHL5 [2]; [6]) [M],IC50 (SUDHL10 [5]; [7]) [M],IC50 (SUDHL5 [2]; [8]) [M],IC50 (SUDHL10 [5]; [9]) [M]
"Cc1nn(C)c2c1-c1cccc3c(CCCOc4cccc5ccccc45)c(C(=O)O)n(c13)CCCN(c1ccc(N3CCN(S(=O)(=O)N(C)C)CC3)cc1)C2 (single isomer, unassigned; enantiomer 1) [Example 1-106, 7-{4-[4-(Dimethylsulfamoyl)piperazin-1-yl]phenyl}-9,11-dimethyl-1-[3-(1-naphthyloxy)propyf]-4,5,6,7,8,9-hexahydropyrazolo[3′,4′:7,8][1,5]diazecino[9,10,1-hi]indole-2-carboxylic Acid (Enantiomer 1)]",11.5,9.37,8.83e-06,4.15e-06,0.0163,,,,,1.49e-05,1.89e-05,,
"CN(C)S(=O)(=O)N1CCN(c2ccc(OCc3nn(C)c4c3-c3cccc5c(CCCOc6cccc7ccccc67)c(C(=O)O)n(c35)CCCCOC4)cc2)CC1 (single isomer, unassigned; enantiomer 1) [Example 1-19, 3-({4-[4-(dimethylsulfamoyl)piperazin-1-yl]phenoxy}methyl)-1-methyl-7-[3-(naphthalen-1-yloxy)propyl]-1,10,11,12,13,15-hexahydropyrazolo[4′,3′:9,10][1,6]oxazacycloundecino[8,7,6-hi]indole-8-Carboxylic acid (Enantiomer 1)]",17.2,20.6,,,0.0527,,,5.87e-06,,2.7e-05,,,2.52e-05
"Cn1nc(CO)c2c1COCCCCn1c(C(=O)O)c(CCCOc3cccc4ccccc34)c3cccc-2c31 (racemic) [Example 1-95, (rac)-3-(hydroxymethyl)-1-methyl-7-[3-(naphthalen-1-yloxy)propyl]-1,10,11,12,13,15-hexahydropyrazolo[4′,3′:9,10][1,6]oxazacycloundecino[8,7,6-hi]indole-8-carboxylic Acid]",,,,4.8e-06,0.0039,10.8,22.7,,,,> 3.3e-05,1.98e-05,
"COC1(c2ccc(OCc3nn(C)c4c3-c3cccc5c(CCCOc6cccc7ccccc67)c(C(=O)O)n(c35)CCCCOC4)cc2)CCOCC1 (racemic) [Example 1-65, (rac)-3-{[4-(4-methoxytetrahydro-2H-pyran-4-yl)phenoxy]methyl}-1-methyl-7-[3-(naphthalen-1-yloxy)propyl]-1,10,11,12,13,15-hexahydropyrazolo[4′,3′:9,10][1,6]oxazacycloundecino[8,7,6-hi]indole-8-carboxylic Acid]",,,,3.71e-06,0.031,16.3,17.5,,,,3.13e-05,> 3.3e-05,
"Cn1nc(COc2ccc(C3(O)CCOCC3)cc2)c2c1COCCCCn1c(C(=O)O)c(CCCOc3cccc4ccccc34)c3cccc-2c31 (racemic) [Example 1-61, (rac)-3-{[4-(4-hydroxytetrahydro-2H-pyran-4-yl)phenoxy]methyl}-1-methyl-7-[3-(naphthalen-1-yloxy)propyl]-1,10,11,12,13,15-hexahydropyrazolo[4′,3′:9,10][1,6]oxazacycloundecino[8,7,6-hi]indole-8-carboxylic Acid]",,,,5.41e-06,0.00293,6.16,10.7,,,,2.11e-05,1.33e-05,

# Continued, in another order:
EC50 (SUDHL5 [1]) [µM],EC50 (SUDHL10 [3]) [µM],"IC50 (A2780; Homo sapiens, A2780, 72 h) [M]","IC50 (SUDHL5 [4]; Homo sapiens, SU-DHL-5, 72 h) [M]",IC50 (MCL-1) [µM],"EC50 (SUDHL5 [1]; Homo sapiens, SU-DHL-5, 3 h) [µM]","EC50 (SUDHL10 [3]; Homo sapiens, SU-DHL10, 3 h) [µM]",IC50 (SUDHL5 [4]) [M],IC50 (A2780) [M],Compound,IC50 (SUDHL5 [2]; [6]) [M],IC50 (SUDHL10 [5]; [7]) [M],IC50 (SUDHL5 [2]; [8]) [M],IC50 (SUDHL10 [5]; [9]) [M]
,,1.9e-05,1.56e-05,0.0111,> 33,> 33,,,"Cc1nn(CC(F)(F)F)c2c1-c1cccc3c(CCCOc4cccc5ccccc45)c(C(=O)O)n(c13)CCCCOC2 (racemic) [Example 109, (rac)-3-methyl-7-[3-(naphthalen-1-yloxy)propyl]-1-(2,2,2-trifluoroethyl)-1,10,11,12,13,15-hexahydropyrazolo[4′,3′:9,10][1,6]oxazacycloundecino[8,7,6-hi]indole-8-carboxylic acid]",,> 3.3e-05,> 3.3e-05,
> 33,> 33,,,0.0103,,,1.5e-05,1.98e-05,"CCn1nc(C2CC2)c2c1COCCCCn1c(C(=O)O)c(CCCOc3cccc4ccccc34)c3cccc-2c31 (single isomer, unassigned; enantiomer 2) [Example 090, 3-cyclopropyl-1-ethyl-7-[3-(naphthalen-1-yloxy)propyl]-1,10,11,12,13,15-hexahydropyrazolo[4′3′:9,10][1,6]oxazacycloundecino[8,7,6-hi]indole-8-carboxylic acid-N-ethylethanamine Salt (Enantiomer 2)]",> 3.3e-05,,,> 3.3e-05
,,2.02e-05,1.27e-05,0.0058,10,28.7,,,"Cn1nc(C(F)(F)F)c2c1COCCCCn1c(C(=O)O)c(CCCOc3cccc4ccccc34)c3cccc-2c31 (racemic) [Example 216, (rac)-1-methyl-7-[3-(naphthalen-1-yloxy)propyl]-3-(trifluoromethyl)-1,10,11,12,13,15-hexahydropyrazolo[4′,3′:9,10][1,6]oxazacycloundecino[8,7,6-hi]indole-8-carboxylic Acid]",,3.11e-05,1.04e-05,
14.9,> 33,2.9e-05,9.08e-06,0.00524,,20.7,,> 3.3e-05,"Cn1nc(COC2CC2)c2c1COCCCCn1c(C(=O)O)c(CCCOc3cccc4ccccc34)c3cccc-2c31 (single isomer, unassigned) [Example 214, 3-[(cyclopropyloxy)methyl]-1-methyl-7-[3-(naphthalen-1-yloxy)propyl]-1,10,11,12,13,15-hexahydropyrazolo[4′,3′:9,10][1,6]oxazacycloundecino[8,7,6-hi]indole-8-carboxylic Acid]",1.14e-05,,,

# From patent publication US10981932B2, “Macrocyclic indole derivatives” (Bayer Aktiengesellschaft, priority 2016, dated 2021)
